From patent US12528801B2 (Givaudan SA, priority 2019, dated 2026) come the findings set out here.

SMILES strings stand for the structures. Bounds are passed on as bounds.

T1 sequence (Q7Z2W7 whole entry): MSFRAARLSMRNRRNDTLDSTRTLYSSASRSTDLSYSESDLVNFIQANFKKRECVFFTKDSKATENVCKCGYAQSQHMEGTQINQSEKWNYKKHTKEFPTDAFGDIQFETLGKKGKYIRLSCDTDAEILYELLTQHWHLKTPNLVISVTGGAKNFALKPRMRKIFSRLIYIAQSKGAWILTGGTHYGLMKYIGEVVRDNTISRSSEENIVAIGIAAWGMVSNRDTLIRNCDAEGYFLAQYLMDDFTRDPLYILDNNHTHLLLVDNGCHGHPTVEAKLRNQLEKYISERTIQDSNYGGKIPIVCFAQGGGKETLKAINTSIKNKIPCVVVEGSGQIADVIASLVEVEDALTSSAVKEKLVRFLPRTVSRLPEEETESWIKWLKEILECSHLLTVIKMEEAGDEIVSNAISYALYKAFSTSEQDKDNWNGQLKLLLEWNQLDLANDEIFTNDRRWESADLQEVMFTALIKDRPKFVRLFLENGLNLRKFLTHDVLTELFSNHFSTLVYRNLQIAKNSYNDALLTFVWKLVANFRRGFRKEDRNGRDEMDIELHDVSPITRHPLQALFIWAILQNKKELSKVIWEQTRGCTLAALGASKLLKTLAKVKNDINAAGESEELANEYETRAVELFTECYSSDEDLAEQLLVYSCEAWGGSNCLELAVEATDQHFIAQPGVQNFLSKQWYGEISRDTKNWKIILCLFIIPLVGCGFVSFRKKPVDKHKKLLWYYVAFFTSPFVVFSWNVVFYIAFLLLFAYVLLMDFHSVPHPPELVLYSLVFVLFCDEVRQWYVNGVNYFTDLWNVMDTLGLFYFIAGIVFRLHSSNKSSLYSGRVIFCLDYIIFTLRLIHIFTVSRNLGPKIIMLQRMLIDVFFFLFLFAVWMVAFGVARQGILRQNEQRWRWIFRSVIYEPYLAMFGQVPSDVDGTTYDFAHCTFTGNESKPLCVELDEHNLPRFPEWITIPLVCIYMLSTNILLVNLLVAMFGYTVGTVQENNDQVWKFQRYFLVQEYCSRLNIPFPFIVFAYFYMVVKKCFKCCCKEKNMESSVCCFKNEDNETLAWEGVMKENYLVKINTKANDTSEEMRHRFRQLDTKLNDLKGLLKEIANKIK

The experiment has as its target T1, hTRPM8 (Homo sapiens, UniProt Q7Z2W7).
T1 construct: expressed in transfected cells
Kind of experiment: Assay on TRPM8 modulators: calcium imaging (Fluo-4, Flexstation) in HEK293 cell line stably expressing hTRPM8. Format: cell-based. Conditions: HEK293 cells stably expressing hTRPM8; calcium influx, Fluo-4, Flexstation 3; sigmoidal dose-response fit. The protocol: A HEK293 cell line stably expressing hTRPM8 was generated according to Klein of at, (Chem. Senses 36: […], 2011) and receptor activation was monitored by calcium imaging in a Flexstation. For Ca-imaging assays of TRPM8 channel activation, cells were seeded on day 0 at a density of 12000 cells per well in Dulbecco's modified Eagle medium (DMEM) containing 9% foetal bovine serum in black, clear bottom 96-well plates that had been coated with 0.001% polyethyleneimine (molecular weight=60 000, Acros Organics). On day 2, agonists were evaluated via calcium imaging using Fluo-4. Briefly, growth medium was discarded, and the cells were incubated in the dark for 1 h at 37° C. in 50 μL loading buffer consisting of 2.7 μM Fluo-4 AM (Invitrogen) and […] probenecid (Sigma-Aldrich) in DMEM (without serum). After incubation, the plates were washed five times with 100 μL of assay buffer (in mM: 130 NaCl, 5 KCl, 10 HEPES, 2 CaCl2, and 10 glucose, pH7.4.) and further incubated in the dark at room temperature for 30 min. The cells were then washed five times with 100 μL assay buffer and then calcium influx to serial dilutions of inventive compounds were measured in a Flexstation 3 (Molecular Devices). Receptor activation was initiated following addition of 20 μl of a 10-fold concentrated ligand stock solution, which is also prepared in assay buffer. Fluorescence was continuously monitored for 15 seconds prior to ligand addition and for 105 seconds after ligand addition, for a total of 120 seconds. Maximal receptor activation in relation to solvent control and relative to 31.6 μM menthol is determined. Data from serial dilutions were processed with a KNIME workflow to fit a sigmoidal dose-response curve and to extrapolate […].
`CO[C@@H]1C[C@H]1C(=O)N1CCCCC1c1nc(-c2ccccc2)c[nH]1` (relative stereo) [Compound 5, (trans-2-methoxycyclopropyl)(2-(4-phenyl-1H-imidazol-2-yl)piperidin-1-yl)methanone]: the EC50 (usually the concentration at which the effect is half-maximal) fell in the range of 1000 to 35000 nM.
As for `N#C[C@@H]1C[C@@H]1C(=O)N1CCCCC1c1nc(-c2ccccc2)c[nH]1` (relative stereo) [Compound 90, cis-2-(2-(4-phenyl-1H-imidazol-2-yl)piperidine-1-carbonyl)cyclopropane-1-carbonitrile], the EC50 was 1000 to 35000 nM.
Regarding `O=C(c1cnns1)N1CCCCC1c1nc(-c2ccccc2)c[nH]1` (stereo not shown) [Compound 1, (2-(4-phenyl-1H-imidazol-2-y)piperidin-1-yl)(1,2,3-thiadiazol-5-yl)methanone], the EC50 was 1000 to 35000 nM.
Turning to `O=C(C1CSC1)N1CCCCC1c1nc(-c2ccccc2)c[nH]1` (stereo not shown) [Compound 2, (2-(4-phenyl-1H-imidazol-2-yl)piperidin-1-yl)(thietan-3-yl)methanone], the EC50 was in the range of 300 to 1000 nM.
Turning to `CC1(C)CC1C(=O)N1CCCCC1c1nc(-c2ccccc2)c[nH]1` (stereo not shown) [Compound 3, (2,2-dimethylcyclopropyl)(2-(4-phenyl-1H-imidazol-2-yl)piperidin-1-yl)methanone], the EC50 is less than 50 nM.
On to `CCOC1CC1C(=O)N1CCCCC1c1nc(-c2ccccc2)c[nH]1` (stereo not shown) [Compound 4, (2-ethoxycyclopropyl)(2-(4-phenyl-1H-imidazol-2-yl)piperidin-1-yl)methanone], for which the EC50 was in the range of 300 to 1000 nM.
For the compound `CC1CC1C(=O)N1CCCCC1c1nc(-c2ccccc2)c[nH]1` (stereo not shown) [Compound 6, (2-methylcyclopropyl)(2-(4-phenyl-1H-imidazol-2-yl)piperidin-1-yl)methanone], the EC50 was in the range of 50 to 300 nM.
On to `CC1CC(C(=O)N2CCCCC2c2nc(-c3ccccc3)c[nH]2)CO1` (stereo not shown) [Compound 7, (5-methyltetrahydrofuran-3-yl)(2-(4-phenyl-1H-imidazol-2-yl)piperidin-1-yl)methanone], for which the EC50 lay in the range of 1000 to 35000 nM.
In the case of `C/C=C(\C)C(=O)N1CCCCC1c1ncc(-c2ccc(F)c(F)c2)[nH]1` (stereo not shown) [Compound 8, (E)-1-(2-(5-(3,4-difluorophenyl)-1H-imidazol-2-yl)piperidin-1-yl)-2-methylbut-2-en-1-one], the EC50 is 50 to 300 nM.
Turning to `C/C=C(\C)C(=O)N1CCCCC1c1ncc(-c2ccc(C)cc2)[nH]1` (stereo not shown) [Compound 9, (E)-2-methyl-1-(2-(5-(p-tolyl)-1H-imidazol-2-yl)piperidin-1-yl)but-2-en-1-one], the half-maximal effective concentration (EC50) is less than 50 nM.
`C/C=C/C(C)C(=O)N1CCCCC1c1ncc(-c2ccc(C)cc2)[nH]1` (stereo not shown) [Compound 10, (E)-2-methyl-1-(2-(5-(p-tolyl)-1H-imidazol-2-yl)piperidin-1-yl)pent-3-en-1-one]: the EC50 was less than 50 nM.
Consider `CS[C@@H](C)C(=O)N1CCCC[C@@H]1c1ncc(-c2ccc(C)cc2)[nH]1` [Compound 12, (S)-2-(methylthio)-1-((R)-2-(5-(p-tolyl)-1H-imidazol-2-yl)piperidin-1-yl)propan-1-one], for which the EC50 is less than 50 nM.
The figure for `CS[C@@H](C)C(=O)N1CCCC[C@H]1c1ncc(-c2ccc(C)cc2)[nH]1` [Compound 13, (S)-2-(methylthio)-1-((S)-2-(5-(p-tolyl)-1H-imidazol-2-yl)piperidin-1-yl)propan-1-one] is 50 to 300 nM.
The figure for `Cc1ccc(-c2cnc(C3CCCCN3C(=O)C3CCOC3)[nH]2)cc1` (stereo not shown) [Compound 14, (tetrahydrofuran-3-yl)(2-(5-(p-toly)-1H-imidazol-2-yl)piperidin-1-yl)methanone] is 300 to 1000 nM.
For the compound `CSC(C)C(=O)N1CCCCC1c1nc2ccccc2[nH]1` (stereo not shown) [Compound 15, 1-(2-(1H-benzo[d]imidazol-2-yl)piperidin-1-yl)-2-(methylthio)propan-1-one], the EC50 lay in the range of 1000 to 35000 nM.
As to `CSC(C)C(=O)N1CCCCC1c1nc(-c2cnn(C)c2)c[nH]1` (stereo not shown) [Compound 16, 1-(2-(4-(1-methyl-1H-pyrazol-4-yl)-1H-imidazol-2-yl)piperidin-1-yl)-2-(methylthio)propan-1-one], the EC50 lay in the range of 300 to 1000 nM.
As to `CSC(C)C(=O)N1CCCCC1c1nc(-c2ccc3c(c2)OC(F)(F)O3)c[nH]1` (stereo not shown) [Compound 17, 1-(2-(4-(2,2-difluorobenzo[d][1,3]dioxol-5-yl)-1H-imidazol-2-yl)piperidin-1-yl)-2-(methylthio)propan-1-one], the EC50 is less than 50 nM.
With `CSC(C)C(=O)N1CCCCC1c1nc(-c2ccc3c(c2)CCO3)c[nH]1` (stereo not shown) [Compound 18, 1-(2-(4-(2,3-dihydrobenzofuran-5-yl)-1H-imidazol-2-yl)piperidin-1-yl)-2-(methylthio)propan-1-one] the figure was less than 50 nM; with `CSC(C)C(=O)N1CCCCC1c1nc(-c2ccc3c(c2)OCC3)c[nH]1` (stereo not shown) [Compound 19, 1-(2-(4-(2,3-dihydrobenzofuran-6-yl)-1H-imidazol-2-yl)piperidin-1-yl)-2-(methylthio)propan-1-one], less than 50 nM.
Consider `CSC(C)C(=O)N1CCCCC1c1nc(-c2cc(C)ccc2C)c[nH]1` (stereo not shown) [Compound 20, 1-(2-(4-(2,5-dimethylphenyl)-1H-imidazol-2-yl)piperidin-1-yl)-2-(methylthio)propan-1-one], for which the EC50 lay within 300 to 1000 nM.
Turning to `CSC(C)C(=O)N1CCCCC1c1nc(-c2ccccc2Cl)c[nH]1` (stereo not shown) [Compound 21, 1-(2-(4-(2-chlorophenyl)-1H-imidazol-2-yl)piperidin-1-yl)-2-(methylthio)propan-1-one], the EC50 was less than 50 nM.
With `CSC(C)C(=O)N1CCCCC1c1nc(-c2cnc(C3CC3)o2)c[nH]1` (stereo not shown) [Compound 22, 1-(2-(4-(2-cyclopropyloxazol-5-yl)-1H-imidazol-2-yl)piperidin-1-yl)-2-(methylthio)propan-1-one] the figure was 50 to 300 nM; with `CSC(C)C(=O)N1CCCCC1c1nc(-c2ccccc2F)c[nH]1` (stereo not shown) [Compound 23, 1-(2-(4-(2-fluorophenyl)-1H-imidazol-2-yl)piperidin-1-yl)-2-(methylthio)propan-1-one], less than 50 nM; with `CSC(C)C(=O)N1CCCCC1c1nc(-c2ccccc2O)c[nH]1` (stereo not shown) [Compound 24, 1-(2-(4-(2-hydroxyphenyl)-1H-imidazol-2-yl)piperidin-1-yl)-2-(methylthio)propan-1-one], 50 to 300 nM.
In the case of `CSC(C)C(=O)N1CCCCC1c1nc(-c2cccc(CN(C)C)c2)c[nH]1` (stereo not shown) [Compound 25, 1-(2-(4-(3-((dimethylamino)methyl)phenyl)-1H-imidazol-2-yl)piperidin-1-yl)-2-(methylthio)propan-1-one], the EC50 lay within 300 to 1000 nM.
With `CSC(C)C(=O)N1CCCCC1c1nc(-c2cc(F)cc(F)c2)c[nH]1` (stereo not shown) [Compound 26, 1-(2-(4-(3,5-difluorophenyl)-1H-imidazol-2-yl)piperidin-1-yl)-2-(methylthio)propan-1-one], the EC50 was less than 50 nM.
Take `CSC(C)C(=O)N1CCCCC1c1nc(-c2c(C)noc2C)c[nH]1` (stereo not shown) [Compound 27, 1-(2-(4-(3,5-dimethylisoxazol-4-yl)-1H-imidazol-2-yl)piperidin-1-yl)-2-(methylthio)propan-1-one]: the concentration giving a half-maximal response (EC50) fell in the range of 1000 to 35000 nM.
With `CSC(C)C(=O)N1CCCCC1c1nc(-c2ccc(C)c(Cl)c2)c[nH]1` (stereo not shown) [Compound 28, 1-(2-(4-(3-chloro-4-methylphenyl)-1H-imidazol-2-yl)piperidin-1-yl)-2-(methylthio)propan-1-one] the figure was less than 50 nM.
